Measured values from US10206398B2, “Five-membered C-N-attached aryl sulphide and aryl sulphoxide derivatives as pesticides” (BAYER CROPSCIENCE AKTIENGESELLSCHAFT, priority 2014, dated 2019).
Several values for one entry are separate records, joined by “and”; a condition that tells them apart may be missing. Identical values can stand only once. Like-named read-outs stand apart in the source and are kept apart here.

Legend:
[1] = system: Tetranychus urticae; test: Tetranychus urticae - spray test, OP-resistant (bean leaf discs, 6 days); assay type: in vivo; settings: after 6 days
Description: 5. Tetranychus urticae—Spray Test, OP-Resistant
Solvent: 78.0 parts by weight of acetone
• 1.5 parts by weight of dimethylformamide Emulsifier: alkylaryl polyglycol ether
To produce a suitable preparation of active compound, 1 part by weight of active compound is dissolved using the stated parts by weight of solvent and made up with water containing an emulsifier concentration of 1000 ppm until the desired concentration is attained. To produce further test concentrations, the preparation is diluted with emulsifier-containing water.
Discs of bean leaves (Phaseolus vulgaris) infested with all stages of the greenhouse red spider mite (Tetranychus urticae) are sprayed with an active compound preparation of the desired concentration.
After 6 days, the efficacy in % is determined. 100% means that all the spider mites have been killed; 0% means that no spider mites have been killed.

[2] = log P determination by HPLC on reversed-phase columns (C 18), analogous to OECD Guideline 117; assay type: physicochemical; settings: for logP[a]: method [a]; for logP[b]: method [b]; for chromatographic logP: reversed-phase HPLC column (C 18)
Description: The log P values were determined analogously to OECD Guideline 117 (EC Directive 92/69/EEC) by HPLC (high-performance liquid chromatography) using reversed-phase columns (C 18), by the following methods: [a] The LC-MS determination in the acidic range was effected at pH 2.7 with 0.1% aqueous formic acid and acetonitrile (contains 0.1% formic acid) as eluents; linear gradient from 10% acetonitrile to 95% acetonitrile. log P[a] is also referred to as log P(HCOOH). [b] LC-MS determination in the neutral range was effected at pH 7.8 with 0.001 molar aqueous ammonium hydrogencarbonate solution and acetonitrile as eluents; linear gradient from 10% acetonitrile to 95% acetonitrile. log P[b] is also referred to as log P(neutral). Calibration is effected with solutions of a homologous series of unbranched alkan-2-ones (having 3 to 16 carbon atoms) with known log P values (log P values determined on the basis of the retention times by linear interpolation between two successive alkanones).

[3] = system: Meloidogyne incognita; test: Meloidogyne incognita - test; assay type: in vivo; settings: 20 ppm, lettuce, after 14 days
Description: 2. Meloidogyne incognita—Test Solvent: 125.0 parts by weight of acetone To produce a suitable preparation of active compound, 1 part by weight of active compound is mixed with the stated amount of solvent and the concentrate is diluted with water to the desired concentration. Vessels are filled with sand, active compound solution, an egg/larvae suspension of the southern root-knot nematode (Meloidogyne incognita) and lettuce seeds. The lettuce seeds germinate and the plants develop. The galls develop on the roots. After 14 days, the nematicidal efficacy in % is determined by the formation of galls. 100% means that no galls were found; 0% means that the number of galls on the treated plants corresponds to the untreated control.

Cc1cc(F)c(N2C(=O)CN(C(=O)N(C)C3CC3)C2=O)cc1[S+]([O-])CC(F)(F)F (centres unmarked) [compound 131]
efficacy (spider mites killed) ([1]; 500 g/ha): 100%
logP[a] [2]: 2.08
logP[b] [2]: 2.16
nematicidal efficacy (formation of galls) [3]: 100%

Cc1cc(F)c(N2C(=O)CN(C(=O)N(C)C)C2=O)cc1SCC(F)(F)F [compound 130]
efficacy (spider mites killed) ([1]; 500 g/ha): 100% and 90%
logP[a] [2]: 2.58
logP[b] [2]: 2.60
nematicidal efficacy (formation of galls) [3]: 100%

Cc1cc(Cl)c(N2C(=O)CN(C(=O)NC3CC3)C2=O)cc1SCC(F)(F)F [compound 50]
efficacy (spider mites killed) ([1]; 500 g/ha): 100%
logP[a] [2]: 3.29
logP[b] [2]: 3.19
nematicidal efficacy (formation of galls) [3]: 90%

O=C(Nc1cccc(Cl)c1)N1CC(=O)N(c2cc([S+]([O-])CC(F)(F)F)c(Cl)cc2Cl)C1=O (racemic) [compound 117]
efficacy (spider mites killed) ([1]; 500 g/ha): 100%
logP[a] [2]: 3.81
logP[b] [2]: 3.89

Cc1cc(Cl)c(N2C(=O)CN(C(=O)Nc3cccc(CC(F)(F)F)c3)C2=O)cc1SCC(F)(F)F [compound 58]
efficacy (spider mites killed) ([1]; 500 g/ha): 100%
logP[a] [2]: 4.51
logP[b] [2]: 4.38

Cc1cc(F)c(N2C(=O)CN(C(=O)N3CCN(C)CC3)C2=O)cc1SCC(F)(F)F [compound 123]
efficacy (spider mites killed) ([1]; 500 g/ha): 100%
logP[a] [2]: 2.5
logP[b] [2]: 1.51

Cc1cc(Cl)c(N2C(=O)CN(C(=O)Nc3ccc(F)cc3)C2=O)cc1SCC(F)(F)F [compound 94]
efficacy (spider mites killed) ([1]; 500 g/ha): 100%
logP[a] [2]: 4.05
logP[b] [2]: 3.96

Cc1cc(C)c([S+]([O-])CC(F)(F)F)cc1N1C(=O)CN(C(=O)NC(C)(C)C)C1=O (centres unmarked) [compound 40]
efficacy (spider mites killed) ([1]; 500 g/ha): 100%
logP[a] [2]: 2.90
logP[b] [2]: 2.83

O=C(Nc1cccc(Cl)c1)N1CC(=O)N(c2cc(SCC(F)(F)F)c(Cl)cc2Cl)C1=O [compound 109]
efficacy (spider mites killed) ([1]; 500 g/ha): 90%
logP[a] [2]: 4.49
logP[b] [2]: 4.56

Cc1cc(F)c(N2C(=O)CN(C(=O)NCc3ccccc3)C2=O)cc1SCC(F)(F)F [compound 18]
efficacy (spider mites killed) ([1]; 500 g/ha): 90%
logP[a] [2]: 3.64
logP[b] [2]: 3.53

Cc1cc(F)c(N2C(=O)C(C)N(C(=O)NC3CC3)C2=O)cc1SCC(F)(F)F (centres unmarked) [compound 25]
efficacy (spider mites killed) ([1]; 500 g/ha): 100%
logP[a] [2]: 3.43
logP[b] [2]: 3.35

Cc1cc(F)c(N2C(=O)N(C(=O)NCC(C)C)C(C)(C)C2=O)cc1SCC(F)(F)F [compound 76]
efficacy (spider mites killed) ([1]; 500 g/ha): 100% and 90%
logP[a] [2]: 4.51
logP[b] [2]: 4.42

Cc1cc(F)c(N2C(=O)C(C)N(C(=O)NCC(C)C)C2=O)cc1SCC(F)(F)F (racemic) [compound 80]
efficacy (spider mites killed) ([1]; 500 g/ha): 100%
logP[a] [2]: 3.99
logP[b] [2]: 3.98

Cc1cc(C)c([S+]([O-])CC(F)(F)F)cc1N1C(=O)CN(C(=O)NC2CC2)C1=O (centres unmarked) [compound 60]
efficacy (spider mites killed) ([1]; 500 g/ha): 100%
logP[a] [2]: 2.24
logP[b] [2]: 2.17

CCNC(=O)N1CC(=O)N(c2cc(SCC(F)(F)F)c(C)cc2C)C1=O [compound 31]
efficacy (spider mites killed) ([1]; 500 g/ha): 90%
logP[a] [2]: 3.14
logP[b] [2]: 3.04

Cc1cc(F)c(N2C(=O)CN(C(=O)NCC(C)C)C2=S)cc1[S+]([O-])CC(F)(F)F (centres unmarked) [Ex. No. 13]
efficacy (spider mites killed) ([1]; 500 g/ha): 90%
logP[a] [2]: 3.33
logP[b] [2]: 3.24

Cc1cc(F)c(N2C(=O)CN(C(=O)N3CCN(C)CC3)C2=O)cc1[S+]([O-])CC(F)(F)F (centres unmarked) [compound 127]
efficacy (spider mites killed) ([1]; 500 g/ha): 100%
logP[a] [2]: 1.72
logP[b] [2]: 1.61

Cc1cc(F)c(N2C(=O)CN(C(=S)NCC(F)(F)F)C2=O)cc1SCC(F)(F)F [compound 102]
efficacy (spider mites killed) ([1]; 500 g/ha): 100%
logP[a] [2]: 3.71
logP[b] [2]: 3.84

Cc1cc(C)c(N2C(=O)CN(C(=O)NC(C)C)C2=O)cc1SCC(F)(F)F [compound 22]
efficacy (spider mites killed) ([1]; 500 g/ha): 100%
logP[a] [2]: 3.48
logP[b] [2]: 3.38

Cc1cc(Cl)c(N2C(=O)CN(C(=O)NCc3ccccc3)C2=O)cc1[S+]([O-])CC(F)(F)F (racemic) [compound 70]
efficacy (spider mites killed) ([1]; 500 g/ha): 100%
logP[a] [2]: 2.95
logP[b] [2]: 2.91

CC(C)CNC(=O)N1CC(=O)N(c2cc(SCC(F)(F)F)c(Cl)cc2Cl)C1=O [compound 105]
efficacy (spider mites killed) ([1]; 500 g/ha): 100%
logP[a] [2]: 3.91
logP[b] [2]: 3.99

Cc1cc(C)c(N2C(=O)CN(C(=O)NCc3ccccc3)C2=O)cc1SCC(F)(F)F [compound 92]
efficacy (spider mites killed) ([1]; 500 g/ha): 90%
logP[a] [2]: 3.75
logP[b] [2]: 3.66

Cc1cc(C)c([S+]([O-])CC(F)(F)F)cc1N1C(=O)CN(C(=O)Nc2cccc(CC(F)(F)F)c2)C1=O (racemic) [compound 97]
efficacy (spider mites killed) ([1]; 500 g/ha): 90%
logP[a] [2]: 3.57
logP[b] [2]: 3.47

Cc1cc(Cl)c(N2C(=O)CN(C(=O)NCC(C)C)C2=O)cc1[S+]([O-])CC(F)(F)F (racemic) [compound 65]
efficacy (spider mites killed) ([1]; 100 g/ha): 90%
logP[a] [2]: 2.95
logP[b] [2]: 2.88

Cc1cc(F)c(N2C(=O)CN(C(=O)NC3CC3)C2=O)cc1[S+]([O-])CC(F)(F)F (centres unmarked) [Ex. No. 3, N-Cyclopropyl-3-[2-fluoro-4-methyl-5-(2,2,2-trifluoroethylsulphinyl)phenyl]-2,4-dioxoimidazolidine-1-carboxamide]
pest or weed control at 500 g/ha ([1]; Tetranychus urticae, foliar, 144 h, 500 g/ha, read-out: efficacy (spider mites killed)): 100%
chromatographic logP ([2]; pH 2.7, HPLC, acidic range, pH 2.7, 0.1% aqueous formic acid and acetonitrile, read-out: log P(HCOOH)): 2.15
chromatographic logP ([2]; pH 2.7, method [a], read-out: logP[a]): 2.15
chromatographic logP ([2]; pH 7.8, HPLC, neutral range, pH 7.8, 0.001 molar aqueous ammonium hydrogencarbonate and acetonitrile, read-out: log P(neutral)): 2.12
chromatographic logP ([2]; pH 7.8, method [b], read-out: logP[b]): 2.12

Cc1cc(F)c(N2C(=O)CN(C(=O)Nc3cccc(Cl)c3)C2=O)cc1SCC(F)(F)F [compound 45]
efficacy (spider mites killed) ([1]; 500 g/ha): 100%
logP[a] [2]: 4.23
logP[b] [2]: 4.16

O=C(Nc1cccc(C(F)(F)F)c1)N1CC(=O)N(c2cc(SCC(F)(F)F)c(Cl)cc2Cl)C1=O [compound 110]
efficacy (spider mites killed) ([1]; 500 g/ha): 100%
logP[a] [2]: 4.56
logP[b] [2]: 4.61

Cc1cc(Cl)c(N2C(=O)CN(C(=O)Nc3cccc(Cl)c3)C2=O)cc1SCC(F)(F)F [compound 59]
efficacy (spider mites killed) ([1]; 500 g/ha): 100% and 90%
logP[a] [2]: 4.46
logP[b] [2]: 4.28

CCNC(=O)N1CC(=O)N(c2cc([S+]([O-])CC(F)(F)F)c(Cl)cc2Cl)C1=O (racemic) [compound 111]
efficacy (spider mites killed) ([1]; 500 g/ha): 100%
logP[a] [2]: 2.56
logP[b] [2]: 2.59

Cc1cc(C)c(N2C(=O)CN(C(=O)NC3CC3)C2=O)cc1SCC(F)(F)F [compound 49]
efficacy (spider mites killed) ([1]; 500 g/ha): 100%
logP[a] [2]: 1.36
logP[b] [2]: 2.81

Cc1cc(F)c(N2C(=O)CN(C(=O)N3CCS(=O)(=O)CC3)C2=O)cc1SCC(F)(F)F [compound 128]
logP[a] [2]: 2.4
logP[b] [2]: 2.44
nematicidal efficacy (formation of galls) [3]: 100%
